Reference: patent publication US5776901A, “Polypeptide analogues having growth hormone releasing activity” (Administrators of the Tulane Educational Fund, priority 1992, dated 1998)
Several values for one entry are separate records, joined by “and”; a condition that tells them apart may be missing. Identical values can stand only once.

How the values were obtained:
[1] = tested on: serum growth hormone (GH); assay: In vivo GH release in pentobarbital anesthetized rats, i.v. injection; parameters: species or system rat; conditions: sacrificed 10 min after injection, N = 6
Description: (§1) Immature female Sprague-Dawley rats were obtained from the Charles River Laboratories (Wilmington, Mass.). After arrival they were housed at 25° C. with a 14:10 hour light:dark cycle. Water and Purina rat chow were available ad libitum. Pups were kept with their mothers until 21 days of age.
(§2) Twenty-six day old rats, six rats per treatment group, were anesthetized interperitoneally with 50 mg/kg of pentobarbital 20 minutes prior to i.v. treatment with peptide. Normal saline with 0.1% gelatin was the vehicle for intravenous (i.v.) injections of the peptides. The anesthetized rats, weighing 55-65 grams, were injected i.v. with the quantity of growth hormone releasing compounds indicated in Table 3. Injection was made as a 0.1 mL solution into the jugular vein.
(§3) All animals were sacrificed by guillotine 10 minutes after the final test injection (see Table 3). Trunk blood for the determination of blood GH levels was collected following decapitation. After allowing the blood to clot, it was centrifuged and the serum was separated from the clot. Serum was kept frozen until the day of sampling for radioimmunoassay (RIA) determination of growth hormone levels according to the following procedure, as developed by the National Institute of Arthritis, Diabetes and Digestive and Kidney Diseases (NIADDK).
Reagents are generally added to the RIA analysis tubes at a single sitting, at refrigerator temperature (about 4° C.) in the following sequence:
(b) "cold" (i.e., non-radioactive) standard or unknown serum sample to be analyzed,
(c) radio-iodinated growth hormone antigen, and
(d) growth hormone antiserum.
Reagent addition is generally carried out so that there is achieved a final RIA tube dilution of about 1:30,000 (antiserum to total liquid volume; vol:vol).
(§4) The mixed reagents are then typically incubated at room temperature (about 25° C.) for about 24 hours prior to addition of a second antibody (e.g., goat or rabbit anti-monkey gamma globulin serum) which binds to and causes precipitation of the complexed growth hormone antiserum. Precipitated contents of the RIA tubes are then analyzed for the number of counts in a specified period of time in a gamma scintillation counter. A standard curve is prepared by plotting number of radioactive counts versus growth hormone (GH) level. GH levels of unknowns are then determined by reference to the standard curve.
(§5) Serum GH was measured by RIA with reagents provided by the National Hormone and Pituitary Program.
Serum levels in Table 3 are recorded in ng/mL in terms of the rat GH standard of 0.61 International Units/mg (IU/mg). Data is recorded as the mean +/- standard error of the mean (SEM). Statistical analysis was performed with Student's t-test. In Table 3 the results shown are the average of studies with six rats.
The procedure of Example 2 was repeated.

[2] = tested on: serum growth hormone (GH); assay: In vivo GH release in rats, subcutaneous injection, sacrifice at +15 minutes; parameters: species or system rat; conditions: Table 7, sacrifice +15 minutes, N = 6
Description: as §1, §2, §3, §4, §5
The general procedure of Example 2 was followed except the peptides were injected subcutaneously rather than intravenously and the sacrifice time was +15 minutes rather than +10 minutes.

[3] = Table 5, total dose 0.10 μg i.v.
[4] = Table 5, total dose 0.30 μg i.v.
[5] = Table 5, total dose 1.00 μg i.v.
[6] = Table 6, total dose 0.30 μg i.v.
[7] = Table 6, total dose 1.00 μg i.v.
[8] = Table 5, total dose 3.00 μg i.v.

**Q.** Which results are given for 3Me-His-DβNal-Ala-Trp-DPhe-Lys-NH2?
**A.** GH Released Serum GH ([1]; Table 5, total dose 0.03 μg i.v.): 122 ng/mL and 134 ng/mL; GH Released Serum GH [1, 3]: 185 ng/mL and 112 ng/mL and 159 ng/mL; GH Released Serum GH [1, 4]: 101 ng/mL and 78 ng/mL; GH Released Serum GH [1, 5]: 134 ng/mL

**Q.** What does the source list for DAla-DμNal-Ala-Trp-LysNH2?
**A.** GH Released Serum GH [1, 6]: 187 ng/mL; GH Released Serum GH [1, 7]: 257 ng/mL; GH Released Serum GH ([1]; Table 6, total dose 3.00 μg i.v.): 198 ng/mL; GH Released Serum GH ([1]; Table 6, total dose 10.00 μg i.v.): 193 ng/mL; GH Released Serum GH ([1]; Table 6, total dose 30.00 μg i.v.): 236 ng/mL

**Q.** DAla-Tcc-Ala-Trp-DPhe-Lys-NH2 was tested. Which “GH Released Serum GH” value [1, 4] did it give?
**A.** 149 ng/mL

**Q.** And the “GH Released Serum GH” value [1, 8]?
**A.** 142 ng/mL

**Q.** Which results are given for Tip-Ala-DβNal-Ala-Trp-DPhe-Lys-NH2?
**A.** GH Released Serum GH [1, 3]: 168 ng/mL; GH Released Serum GH [1, 4]: 167 ng/mL; GH Released Serum GH [1, 5]: 152 ng/mL; GH Released Serum GH [1, 8]: 272 ng/mL

**Q.** For α,γABU-DβNal-Ala-Trp-DPhe-LysNH2, which “GH Released Serum GH” value ([1]; Table 6, total dose 0.03 μg i.v.) is on record?
**A.** 621 ng/mL

**Q.** And the “GH Released Serum GH” value ([1]; Table 6, total dose 0.10 μg i.v.)?
**A.** 1230 ng/mL

**Q.** And the “GH Released Serum GH” value [1, 6]?
**A.** 2385 ng/mL

**Q.** What about the “GH Released Serum GH” value [1, 7] of the same substance?
**A.** 3011 ng/mL

**Q.** With αγABU-DβNal-Ala-Phe-DPhe-Lys-NH2 as the substance, how does the “GH Released Serum GH + SEM” value ([2]; total dose 1.00 μg s.c.) read?
**A.** 1441 ± 203 ng/mL

**Q.** And the “GH Released Serum GH + SEM” value ([2]; total dose .03 μg s.c.)?
**A.** 192 ± 29 ng/mL

**Q.** And the “GH Released Serum GH + SEM” value ([2]; total dose .10 μg s.c.)?
**A.** 288 ± 62 ng/mL

**Q.** What about the “GH Released Serum GH + SEM” value ([2]; total dose .30 μg s.c.) of the same substance?
**A.** 461 ± 90 ng/mL

**Q.** How did the “GH Released Serum GH + SEM” value ([2]; total dose 1.00 μg s.c.) turn out when γABU-DβNal-Ala-Phe-DPhe-Lys-NH2 was run?
**A.** 1127 ± 110 ng/mL

**Q.** And the “GH Released Serum GH + SEM” value ([2]; total dose .03 μg s.c.)?
**A.** 197 ± 31 ng/mL

**Q.** And the “GH Released Serum GH + SEM” value ([2]; total dose .10 μg s.c.)?
**A.** 182 ± 20 ng/mL

**Q.** What about the “GH Released Serum GH + SEM” value ([2]; total dose .30 μg s.c.) of the same substance?
**A.** 524 ± 116 ng/mL
